# Experimental data taken from EP4810493A1, “HETEROCYCLIC CARBONYL DERIVATIVE MODULATOR, PREPARATION METHOD THEREFOR, AND USE THEREOF” (Shanghai Hansoh Biomedical Co., Ltd., priority 2023, dated 2025).
# Target: T1, M4 receptor (Homo sapiens, UniProt P08173)
# T1 construct: expressed in transfected cells
# T1 sequence (P08173 1-479): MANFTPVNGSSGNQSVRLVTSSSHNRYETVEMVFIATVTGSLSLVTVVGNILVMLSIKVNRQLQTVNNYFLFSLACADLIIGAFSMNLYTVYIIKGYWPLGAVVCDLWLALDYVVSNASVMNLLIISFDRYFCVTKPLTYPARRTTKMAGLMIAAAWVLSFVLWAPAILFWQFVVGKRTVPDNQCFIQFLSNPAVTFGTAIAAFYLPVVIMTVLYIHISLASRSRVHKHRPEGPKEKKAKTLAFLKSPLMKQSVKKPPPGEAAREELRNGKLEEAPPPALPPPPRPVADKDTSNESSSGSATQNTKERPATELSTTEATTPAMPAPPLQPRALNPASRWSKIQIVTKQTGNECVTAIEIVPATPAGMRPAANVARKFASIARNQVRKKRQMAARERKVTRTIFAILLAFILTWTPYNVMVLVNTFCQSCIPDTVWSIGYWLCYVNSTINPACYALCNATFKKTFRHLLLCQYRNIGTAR
# Assay: Calcium flux (FLIPR) potentiation assay in cells stably expressing M4 receptor
# Assay type: cell-based
# Conditions: not given
# Excerpt: Test example 1. Determination of the effect of the compounds of the present invention on calcium current in cells stably expressing M1-M5 receptors
# To detect the potentiating effect of compounds on calcium flux activity in CHO-K1/human M1/3/5 and CHO-K1/Gα15 M2/4 cells.
# 384-well assay plate, 384-well plate, FLIPR Tip, FLIPR Penta plate reader, Dispendix non-contact nanoliter dispensing system (liquid handling workstation), liquid handler.
# Ham's F-12 Nutrient Mix, foetal bovine serum, P/S (Gibco: 15140122), HBSS (Gibco: 14025076), HEPES (Gibco: 15630080), FLIPR calcium 6 assay kit (Molecular Devices: R8190), Probenecid (PBA) (Invitrogen: P36400), Acetylcholine chloride (Sigma: A6625-25G) Complete culture medium: DMEM + 10% FBS + 1X P/S; Cell seeding medium: DMEM + 10% FBS + 1X PS; Assay buffer 1: 1X HBSS + 20 mM HEPES +2.5 mM Probenecid; Assay buffer 2: 1X HBSS + 20 mM HEPES; Cell line: CHO-K1/M1; CHO-K1/M2/Gα15; CHO-K1/M3; CHO-K1/M4/Gα15; CHO-K1/M5.
# FLIPR calcium 6 assay kit: Component A was dissolved in Assay buffer 1, and the mixture was shaken for 1-2 min, sub-packaged and stored at -20°C.
# • 1) CHO-K1/M1; CHO-K1/M2/Gα15; CHO-K1/M3; CHO-K1/M4/Gα15; and CHO-K1/M5 cell lines were cultured separately in complete culture medium at 37°C, 5% CO2 to 70%-90% confluency. • 2) The cells were digested and resuspended in cell seeding medium, 5,000 cells/well/20 µL were seeded into a 384-well cell culture plate, and the cells were cultured at 37°C, 5% CO2 for 24 hours. • 3) The cell culture plate was taken out of the CO2 incubator and equilibrated at room temperature for 10 minutes. • 4) Component A solution was removed and allowed to equilibrate to room temperature. 20 µL of Component A solution was added to each well of the cell culture plate, and incubated at room temperature in the dark for 1 hour. • 5) Acetylcholine chloride (ACh), a muscarinic receptor agonist, was prepared in Assay buffer 2 at EC20/EC100 concentrations; subsequently, 30 µL of the prepared muscarinic receptor agonist was added to a 384-well agonist plate (PE: 6008590) using a Multidrop Combi; the working solutions of the positive control compound and the test compound were serially diluted at a 3.16-fold gradient and dispensed (450 nL) into a 384-well compound plate (PE: 6008590) using the Dispendix liquid handling workstation; 30 µL of Assay buffer 2 was added to the 384-well compound plate (PE: 6008590) using the Multidrop Combi; the positive control compound and the test compound were diluted to 6X, mixed by shaking, and placed at room temperature until use. • 6) 10 µL of the diluted 6X compound was added to the assay wells of the corresponding 384-well cell plate using the FLIPR Penta, followed by a 2-minute incubation. • 7) 10 µL of the prepared muscarinic receptor agonist was added to the assay wells of the corresponding 384-well cell plate using the FLIPR Penta, with simultaneous data acquisition.
# FLIPR Penta was used to read and collect the fluorescence signal value (RFU). The maximum RFU value was used to calculate the percent activation data based on the readings of the Low control (DMSO control group) and High control (ACh EC100) experimental groups {% activation rate = (RFUsample - RFUlow control) / (RFUhigh control - RFUlow control)×100}. The test compound was diluted 3.16X in the reaction system to generate 11 concentration points ranging from 30 µM to […].
row,Structure (SMILES),EC50 [µM]
1,Cc1cn2nc(N3CC(CC(=O)N4Cc5c(C)c(C)n6ncnc6c5C4)C3)ccc2n1 [Example 55],0.0181
2,Cc1c2c(c3nccn3c1C)CN(C(=O)CC1CC1c1ccc(F)nc1)C2 (stereo not drawn) [Example 104],0.0538
3,Cc1c2c(c3ncnn3c1C)CN(C(=O)OC1CN(c3cc(Cl)ncc3Cl)C1)C2 [Example 187],0.0282

# Same assay, conditions: CHO-K1/M4/Gα15 cells; potentiation of acetylcholine (EC20) calcium flux; read-out: M4 FLIPR EC50
row,EC50 [µM],Structure (SMILES)
1,0.0147,"Cc1c2c(c3ncnn3c1C)CN(C(=O)CC1CN(c3ccnc(C(F)(F)F)c3)C1)C2 [Example 20, 1-(5,6-Dimethyl-7,9-dihydro-8H-pyrrolo[3,4-c][1,2,4]triazolo[1,5-a]pyridin-8-yl)-2-(1-(2-(trifluoromethyl)pyridin-4-yl)azetidin-3-yl)ethan-1-one]"
2,0.0095,Cc1c2c(c3ncnn3c1C)CN(C(=O)CC1CN(c3ccc(S(=O)(=O)C(F)F)cc3)C1)C2 [Example 25]
3,0.037,Cc1c2c(c3ncnn3c1C)CN(C(=O)c1ccc(F)c(Cl)c1)C2 [Example 29]
4,0.0404,Cc1c2c(c3ncnn3c1C)CN(C(=O)C1CCN(c3ccncn3)C1)C2 (stereo not drawn) [Example 34]
5,0.0379,CN=S(C)(=O)c1ccc(N2CC(CC(=O)N3Cc4c(C)c(C)n5ncnc5c4C3)C2)cc1 (stereo not drawn) [Example 38]
6,0.008,CCNc1nccc(N2CC(CC(=O)N3Cc4c(C)c(C)n5ncnc5c4C3)C2)n1 [Example 53]
7,0.0096,Cc1c2c(c3ncnn3c1C)CN(C(=O)CC1CN(c3cc(NC(C)C)ncn3)C1)C2 [Example 54]
8,0.018,Cc1nc2c3c(c(C)c(C)n2n1)CN(C(=O)CC1CN(c2ccnc(C(F)(F)F)c2)C1)C3 [Example 57]
9,0.0088,"Cc1c2c(c3nccn3c1C)CN(C(=O)CC1CN(c3ccnc(C(F)(F)F)c3)C1)C2 [Example 60, 1-(5,6-Dimethyl-7,9-dihydro-8H-imidazo[1,2-a]pyrrolo[3,4-c]pyridin-8-yl)-2-(1-(2-(trifluoromethyl)pyridin-4-yl)azetidin-3-yl)ethan-1-one]"
10,0.0106,Cc1c2c(c3ncnn3c1C)CN(C(=O)CC1CN(c3ccnc(S(=O)(=O)N(C)C)c3)C1)C2 [Example 61]
11,0.0736,Cc1c2c(c3nccn3c1C)CN(C(=O)CC1CN(c3ccnc(OC(F)F)c3)C1)C2 [Example 70]
12,0.0719,Cc1c2c(c3nccn3c1C)CN(C(=O)OC1CN(c3ccnc(C(F)(F)F)c3)C1)C2 [Example 71]
13,0.0875,Cc1c2c(c3nccn3c1C)CN(C(=O)OC1CN(c3ccnc(OC(F)F)c3)C1)C2 [Example 72]
14,0.0184,Cc1c2c(c3ncnn3c1C)CN(C(=O)CC1CN(c3ccnc(C4CCCCO4)c3)C1)C2 (stereo not drawn) [Example 100]
15,0.0335,Cc1c2c(c3nccn3c1C)CN(C(=O)CC1CN(c3ccnc(C(F)F)c3)C1)C2 [Example 101]
16,0.0244,"Cc1c2c(c3ncnn3c1C)CN(C(=O)C[C@@H]1C[C@H]1c1ccc(F)nc1)C2 [Example 103, 1-(5,6-Dimethyl-7,9-dihydro-8H-pyrrolo[3,4-c][1,2,4]triazolo[1,5-a]pyridin-8-yl)-2-((1S,2R)-2-(6-fluoropyridin-3-yl)cyclopropyl)ethan-1-one]"

row,EC50 [µM],Structure (SMILES)
1,0.0152,Cc1cn2nc(N3CC(CC(=O)N4Cc5c(C)c(C)n6nc(C)nc6c5C4)C3)ccc2n1 [Example 127]
2,0.0517,Cc1nc2c3c(c(C)c(C)n2n1)CN(C(=O)C1CCN(c2ccncn2)C1)C3 (stereo not drawn) [Example 140]
3,0.0309,Cc1c2c(c3nc(C4CC4)nn3c1C)CN(C(=O)CC1CN(c3ccnc(C(F)(F)F)c3)C1)C2 [Example 143]
4,0.0274,Cc1c2c(c3nc(N)nn3c1C)CN(C(=O)CC1CN(c3ccnc(C(F)(F)F)c3)C1)C2 [Example 145]
5,0.0124,Cc1c2c(c3ncnn3c1C)CN(C(=O)CC1CN(c3cc(Cl)ncc3Cl)C1)C2 [Example 146]
6,0.0377,Cc1c2c(c3nnnn3c1C)CN(C(=O)CC1CN(c3ccnc(C(F)(F)F)c3)C1)C2 [Example 148]
7,0.0838,Cc1cn2cc(N3CC(OC(=O)N4Cc5c(C)c(C)n6ncnc6c5C4)C3)ccc2n1 [Example 178]
8,0.0571,Cc1c2c(c3nnnn3c1C)CN(C(=O)OC1CN(c3ccnc(OC(F)F)c3)C1)C2 [Example 179]
9,0.0695,Cc1c2c(c3ncnn3c1C)CN(C(=O)OC1CN(c3cc(C(F)(F)F)ncc3Cl)C1)C2 [Example 180]
10,0.0259,Cc1c2c(c3nc(N)nn3c1C)CN(C(=O)CC1CN(c3ccnc(OC(F)F)c3)C1)C2 [Example 181]
11,0.0441,Cc1c2c(c3ncnn3c1C)CN(C(=O)OC1CN(c3cc(C(F)F)ncc3Cl)C1)C2 [Example 184]
12,0.0111,Cc1c2c(c3ncnn3c1C)CN(C(=O)CC1CN(c3ccnc(OCC(F)F)c3)C1)C2 [Example 185]
13,0.0288,Cc1c2c(c3ncnn3c1C)CN(C(=O)CC1CN(c3ccnc(OCC(F)(F)F)c3)C1)C2 [Example 186]
14,0.0732,Cc1c2c(c3ncnn3c1C)CN(C(=O)OC1CN(c3ccc4nc(CF)cn4n3)C1)C2 [Example 190]
15,0.0394,Cc1cn2nc(N3CC(OC(=O)N4Cc5c(C)c(C)n6nccc6c5C4)C3)ccc2n1 [Example 200]
16,0.0564,Cc1cn2nc(N3CC(CC(=O)N4Cc5c(C)c(C)n6nccc6c5C4)C3)ccc2n1 [Example 201]

# Tested on: not listed separately
# Assay: Pharmacokinetic determination in SD rats
# Conditions: rat, in vivo, po; male SD rats, p.o. 5 mg/kg
# Experimental: To investigate the pharmacokinetic behaviours of the example compounds in both plasma and brain of SD rats (test animals) following oral administration at a dose of 5 mg/kg.
# 2.1 Test drugs: The example compounds of the present invention, made in house.
# 2.2 Test animals: SD Rat, male.
# 24 SD Rats, male; p.o. respectively at a dose of 5 mg/kg and an administration volume of 10 mL/kg after the rats were fasted overnight.
# Formulation of a drug for oral administration: 0.5% CMC-Na (1% Tween 80).
# 0.50 g of sodium carboxymethyl cellulose (CMC-Na, viscosity: 800-1200 Cps) was weighed and dissolved in 99 mL of purified water, and 1 ml of Tween 80 was added. The components were mixed thoroughly under stirring to form a clear solution.
# The example compound was weighed into a 100 mL glass vial, 80 mL of the solution was added, and the mixture was subjected to ultrasound treatment for 10 minutes to obtain a homogeneous suspension with a concentration of 0.5 mg/mL.
# After the test animals were euthanised by CO2, blood samples were collected from the heart and brain tissues were harvested at 0.25 h, 0.5 h, 1 h, 2 h, 4 h, 6 h, 8 h, and 24 h post-dose. Blood was placed in EDTA-2K tubes, and centrifuged at 6000 rpm for 6 min at 4°C to separate the plasma. Brain tissues were rinsed with pre-cold PBS, blotted dry, and weighed. Both plasma and brain samples were stored at -80°C. The animals were fed 4 h after administration.
# • 3) 40 uL of plasma sample was precipitated with 160 uL of acetonitrile, mixed, and centrifuged at 3500 × g for 5-20 min. Brain tissues were diluted, homogenised and centrifuged. • 4) 100 uL of the treated supernatant solution was taken for LC/MS/MS analysis to determine the concentration of the test compounds.
# • Liquid phase conditions: Shimadzu LC-20AD pump • Mass spectrometry conditions: AB Sciex API 4000 mass spectrometer • Chromatographic column: Phenomenex Gemiu 5 um C18 50 × 4.6 mm • Mobile phase: solution A: 0.1% formic acid in water, solution B: acetonitrile • Flow rate: 0.8 mL/min • Elution time: 0-4.0 min, with eluents as follows:
# The main pharmacokinetic parameters were calculated using WinNonlin 8.1.
AUC(0-inf) [ng·h/mL],Cmax [ng/mL],Tmax [h],Structure (SMILES)
9320,1380,2,Cc1c2c(c3ccnn3c1C)CN(C(=O)OC1CN(c3ccnc(C(F)F)c3)C1)C2 [Example 142]

# Same assay, conditions: rat, in vivo, po; male SD rats, p.o. 5 mg/kg; read-out: MRT 0-∞
row,MRT inf [h],Structure (SMILES)
1,4.4,Cc1c2c(c3ccnn3c1C)CN(C(=O)OC1CN(c3ccnc(C(F)F)c3)C1)C2 [Example 142]
